From patent publication US6737383B1, “Herbicidal oxadiazolidines” (priority 1999, dated 2004)

Legend:
soybean = assay: Test B pre/postemergence soybean; assay type: in vivo, Glycine max; settings: Preemergence
Outline: (§1)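 Herbicidal effect was estimated by eye on a ten-point control scale after plants spent twelve to sixteen days in a greenhouse following soil or foliar treatment. Foliar sprays targeted plants at one to four leaves; all doses were formulated in a non-phytotoxic solvent with surfactant.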

morningglory = assay: Test B pre/postemergence morningglory; assay type: in vivo, Ipomoea hederacea; settings: Preemergence
Outline: as §1

surinam grass = assay: Test B pre/postemergence surinam grass; assay type: in vivo, Brachiaria decumbens; settings: Preemergence
Outline: as §1

sugar beet = assay: Test B pre/postemergence sugar beet; assay type: in vivo, Beta vulgaris; settings: Preemergence
Outline: as §1

giant foxtail = assay: Test B pre/postemergence giant foxtail; assay type: in vivo, Setaria faberii; settings: Preemergence
Outline: as §1

wild oat = assay: Test B pre/postemergence wild oat; assay type: in vivo, Avena fatua; settings: Preemergence
Outline: as §1

duck salad = assay: Test B flood test duck salad; assay type: in vivo, Heteranthera limosa
Outline: (§2)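 Plants were grown to the 2-leaf stage before treatment with test chemical, then held in a greenhouse for twelve to sixteen days. Injury was visually rated against untreated controls on a 0–10 scale, where 0 is no effect and 10 is complete control.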

cocklebur = assay: Test B pre/postemergence cocklebur; assay type: in vivo, Xanthium strumarium; settings: Preemergence
Outline: as §1

corn = assay: Test B pre/postemergence corn; assay type: in vivo, Zea mays; settings: Preemergence
Outline: as §1

smallflower flatsedge = assay: Test B flood test smallflower flatsedge; assay type: in vivo, Cyperus difformis
Outline: as §2

bamyardgrass = assay: Test B flood test barnyardgrass; assay type: in vivo, Echinochloa crus-galli
Outline: as §2

crabgrass = assay: Test B pre/postemergence crabgrass; assay type: in vivo, Digitaria sanguinalis; settings: Preemergence
Outline: as §1

pigweed = assay: Test B pre/postemergence pigweed; assay type: in vivo, Amaranthus retroflexus; settings: Preemergence
Outline: as §1

wheat = assay: Test B pre/postemergence wheat; assay type: in vivo, Triticum aestivum; settings: Preemergence
Outline: as §1

purple nutsedge = assay: Test B pre/postemergence purple nutsedge; assay type: in vivo, Cyperus rotundus; settings: Preemergence
Outline: as §1

blackgrass = assay: Test B pre/postemergence blackgrass; assay type: in vivo, Alopecurus myosuroides; settings: Preemergence
Outline: as §1

bedstraw = assay: Test B pre/postemergence bedstraw; assay type: in vivo, Galium aparine; settings: Preemergence
Outline: as §1

rice = assay: Test B flood test rice; assay type: in vivo, Oryza sativa
Outline: as §2

rape = assay: Test B pre/postemergence rape; assay type: in vivo, Brassica napus; settings: Preemergence
Outline: as §1

velvetleaf = assay: Test B pre/postemergence velvetleaf; assay type: in vivo, Abutilon theophrasti; settings: Preemergence
Outline: as §1

[1] = Rate 62 g/ha, scale of 0 to 10 where 0 is no effect and 10 is complete control
[2] = Rate 125 g/ha, scale of 0 to 10 where 0 is no effect and 10 is complete control
[3] = Rate 250 g/ha, scale 0 (no effect) to 10 (complete control)
[4] = Rate 500 g/ha, scale of 0 to 10 where 0 is no effect and 10 is complete control
[5] = Pre-emergence, Rate 62 g/ha, scale 0 to 10, 0 is no effect, 10 is complete control
[6] = Rate 125 g/ha, Pre-emergence section (flood test species), scale 0 to 10, 0 no effect, 10 complete control
[7] = Rate 250 g/ha, Pre-emergence (flood test species), scale 0 to 10, 0 is no effect, 10 is complete control
[8] = Rate 500 g/ha, Pre-emergence section of Table B, 0 to 10 scale (0 no effect, 10 complete control)

SMILES: CC(C)N(C(=O)n1oc(=O)n(CC2CCCCO2)c1=O)c1ccc(F)cc1F (stereo not shown) [Compound 715]
- Soybean plant response rating (soybean; [1]): 0
- Plant response rating, Soybean (soybean; [2]): 0
- Soybean plant response rating (soybean; [3]): 0
- Morningglory plant response rating (morningglory; [1]): 0
- Plant response rating, Morningglory (morningglory; [2]): 1
- Morningglory plant response rating (morningglory; [3]): 2
- B. signalgrass plant response rating (surinam grass; [1]): 8
- Plant response rating, B. signalgrass (surinam grass; [2]): 8
- B. signalgrass plant response rating (surinam grass; [3]): 9
- Plant response rating, B. signalgrass (surinam grass; [4]): 10
- Sugarbeets plant response rating (sugar beet; [1]): 4
- Plant response rating, Sugarbeets (sugar beet; [2]): 5
- Sugarbeets plant response rating (sugar beet; [3]): 7
- Giant foxtail plant response rating (giant foxtail; [1]): 10
- Plant response rating, Giant foxtail (giant foxtail; [2]): 10
- Giant foxtail plant response rating (giant foxtail; [3]): 10
- Wild oats plant response rating (wild oat; [1]): 9
- Plant response rating, Wild oats (wild oat; [2]): 9
- Wild oats plant response rating (wild oat; [3]): 9
- Ducksalad plant response rating (duck salad; [5]): 0
- Ducksalad plant response rating (duck salad; [6]): 0
- Ducksalad plant response rating (duck salad; [7]): 0
- Ducksalad plant response rating (duck salad; [8]): 0
- Cocklebur plant response rating (cocklebur; [1]): 0
- Plant response rating, Cocklebur (cocklebur; [2]): 0
- Cocklebur plant response rating (cocklebur; [3]): 0
- Plant response rating, Cocklebur (cocklebur; [4]): 0
- Corn plant response rating (corn; [1]): 0
- Plant response rating, Corn (corn; [2]): 0
- Corn plant response rating (corn; [3]): 2
- S. Flatsedge plant response rating (smallflower flatsedge; [5]): 0
- S. Flatsedge plant response rating (smallflower flatsedge; [6]): 0
- S. Flatsedge plant response rating (smallflower flatsedge; [7]): 0
- S. Flatsedge plant response rating (smallflower flatsedge; [8]): 0
- Barnyardgrass plant response rating (bamyardgrass; [5]): 0
- Barnyardgrass plant response rating (bamyardgrass; [6]): 0
- Barnyardgrass plant response rating (bamyardgrass; [7]): 0
- Barnyardgrass plant response rating (bamyardgrass; [8]): 0
- Crabgrass plant response rating (crabgrass; [1]): 9
- Plant response rating, Crabgrass (crabgrass; [2]): 9
- Crabgrass plant response rating (crabgrass; [3]): 10
- Redroot pigweed plant response rating (pigweed; [1]): 8
- Plant response rating, Redroot pigweed (pigweed; [2]): 9
- Redroot pigweed plant response rating (pigweed; [3]): 10
- Wheat plant response rating (wheat; [1]): 0
- Plant response rating, Wheat (wheat; [2]): 0
- Wheat plant response rating (wheat; [3]): 3
- Nutsedge plant response rating (purple nutsedge; [1]): 0
- Plant response rating, Nutsedge (purple nutsedge; [2]): 0
- Nutsedge plant response rating (purple nutsedge; [3]): 0
- Blackgrass plant response rating (blackgrass; [1]): 9
- Plant response rating, Blackgrass (blackgrass; [2]): 9
- Blackgrass plant response rating (blackgrass; [3]): 9
- Plant response rating, Blackgrass (blackgrass; [4]): 10
- Bedstraw plant response rating (bedstraw; [1]): 0
- Plant response rating, Bedstraw (bedstraw; [2]): 0
- Bedstraw plant response rating (bedstraw; [3]): 0
- Rice plant response rating (rice; [5]): 0
- Rice plant response rating (rice; [6]): 0
- Rice plant response rating (rice; [7]): 0
- Rice plant response rating (rice; [8]): 0
- Rape plant response rating (rape; [1]): 2
- Plant response rating, Rape (rape; [2]): 8
- Rape plant response rating (rape; [3]): 8
- Velvetleaf plant response rating (velvetleaf; [1]): 0
- Plant response rating, Velvetleaf (velvetleaf; [2]): 5
- Velvetleaf plant response rating (velvetleaf; [3]): 6
